Like-named read-outs stand apart in the source and are kept apart here. Values belong to the molecule of their own block, whether it stands above or below them.
How the values were obtained:
MCF-7 = assay: MTT anti-proliferative assay; type: cell-based, human; conditions: for IC50: Homo sapiens, MCF7; for fold the activity of erlotinib: MCF-7, ratio of IC50 values
Protocol: (§1) The culture media were supplemented with 10% heat inactivated foetal bovine serum (FBS, HyClone, Thermo Scientific) and antibiotics (100 U/ml penicillin and 100 µg/ml streptomycin, HyClone, Thermo Scientific). The cells were incubated in a humidified atmosphere containing 5% CO2 (Heracell VIOS CO2 incubator, Thermo Scientific) in air at 37 °C.
(§2) MTT reagent, at volume equal to 10% of the culture medium volume, was added to the cultured cells and to the blank wells. The culture plates were re-incubated for 2–4 h depending on cell type and density. After the incubation period, culture plates were restored from the incubator and the obtained formazan crystals were dissolved in acidified isopropanol with continuous shaking using plate shaker (MaxQ 2000, Thermo Fisher Scientific Inc., MI, USA) at room temperature. Absorbance was measured spectrophotometrically at wavelength 570 nm using a plate reader (Stat FaxR 4200, Awareness Technology, Inc., FL, USA). […] Three independent experiments were performed for each compound and Mean ± SE were calculated.

A549 = assay: MTT anti-proliferative assay; type: cell-based, human; conditions: for IC50: Homo sapiens, A549, MTT, 24 h, mean ± SE of three experiments, read-out: IC50 (µM) ± S.E. A549; for fold the activity of erlotinib: A549, ratio of IC50 values
Protocol: as §1, §2

HCT-116 = assay: MTT anti-proliferative assay; type: cell-based, human; conditions: Homo sapiens, HCT-116; MTT, 24 h, mean ± SE of three experiments; read-out: IC50 (µM) ± S.E. HCT-116
Protocol: as §1, §2

caspase-9 = assay: Caspase-9 ELISA in MCF-7 cells; type: cell-based, human; conditions: for Caspase 9 FLD: MCF-7, at IC50, fold of control; for Caspase 9 Conc.(pg/ml): MCF-7, at IC50, control 4.51 ± 0.29
Protocol: (§3) The effect of 6a, 6c and 6i hybrids on caspase-7 and −9 levels in MCF-7 cell line was measured using Human Caspase-7 ELISA Kit (BioVision Inc., Milpitas, CA 95035 USA) and Human Caspase-9 ELISA Kit (EIA-4860, DRG, USA), respectively, and according to the manufacturer’s instructions. The results were expressed as Mean ± SE of three independent experiments.

Bcl-2 = Bcl-2 level ELISA in MCF-7 cells; type: cell-based, human; conditions: for Bcl-2 Conc.(ng/ml): MCF-7, at IC50, 24 h, control 6.56 ± 0.22; for Bcl-2 FLD: MCF-7, at IC50, fold of control cells
Protocol: (§4) MCF-7 cells were cultured in DMEM supplied with 10% FBS and incubated in 5% CO2 in air at 37 °C. […] Cell lysate was diluted using standard diluent buffer over the range of assay. Bax and Bcl-2 content in the lysate was assessed using human Bax ELISA kit (DRG, USA) and Bcl-2 ELISA Kit (Zymed Laboratories, Invitrogen Immuno-detection, Canada), respectively, according to the manufacturer’s instructions for each kit. The results were expressed as Mean ± SE of three independent experiments.

Bax = Bax level ELISA in MCF-7 cells; type: cell-based, human; conditions: for Bax Conc.(pg/ml): MCF-7, at IC50, 24 h, control 83.16 ± 6.2; for Bax FLD: MCF-7, at IC50, fold of control cells
Protocol: as §4

p53 = p53 level ELISA in MCF-7 cells; type: cell-based, human; conditions: for p53 FLD: MCF-7, at IC50, fold of control cells; for p53 Conc.(pg/ml): MCF-7, at IC50, control 257 ± 19.1
Protocol: p53 level was determined in MCF-7 cell line using Human p53 ELISA Kit (Sigma Aldrich, St. Louis, MO, USA). The cells were lysed using cell extraction buffer. Cell lysate was diluted with standard diluent buffer, then added to p53 monoclonal antibody pre-coated 96-wells plate. The plate incubated for 2 h at room temperature. Anti-p53 detection antibody was added to the plate and re-incubated at room temperature for 1 h. The plate washed four times using wash buffer followed by addition of anti-rabbit IgG-Horseradish Peroxidase (HRP) working solution. The plate incubated at room temperature for 30 min. Chromogen TMB (tetramethylbenzidine) was added to induce colour reaction. The absorbance of the plate was read at 450 nm using microplate reader (Bio-Rad Laboratories, Hercules, CA, USA). Three independent experiments were performed for each compound and Mean ± SE were calculated.

topoisomerase IIα = target: T1, topoisomerase IIα (Homo sapiens, UniProt P11388); assay: Topoisomerase IIα inhibitory activity (ELISA kit); type: cell-based; conditions: MCF-7 cell line; for % inhibition of topoisomerase IIα activity: compounds at their IC50, compared to control
T1 construct: it decreases the concentration of topoisomerase iIα in MCF-7 cell line to 1.043 ± 0.10 ng/ml; endogenous in cells; host or cells: MCF-7
T1 sequence (P11388 whole entry): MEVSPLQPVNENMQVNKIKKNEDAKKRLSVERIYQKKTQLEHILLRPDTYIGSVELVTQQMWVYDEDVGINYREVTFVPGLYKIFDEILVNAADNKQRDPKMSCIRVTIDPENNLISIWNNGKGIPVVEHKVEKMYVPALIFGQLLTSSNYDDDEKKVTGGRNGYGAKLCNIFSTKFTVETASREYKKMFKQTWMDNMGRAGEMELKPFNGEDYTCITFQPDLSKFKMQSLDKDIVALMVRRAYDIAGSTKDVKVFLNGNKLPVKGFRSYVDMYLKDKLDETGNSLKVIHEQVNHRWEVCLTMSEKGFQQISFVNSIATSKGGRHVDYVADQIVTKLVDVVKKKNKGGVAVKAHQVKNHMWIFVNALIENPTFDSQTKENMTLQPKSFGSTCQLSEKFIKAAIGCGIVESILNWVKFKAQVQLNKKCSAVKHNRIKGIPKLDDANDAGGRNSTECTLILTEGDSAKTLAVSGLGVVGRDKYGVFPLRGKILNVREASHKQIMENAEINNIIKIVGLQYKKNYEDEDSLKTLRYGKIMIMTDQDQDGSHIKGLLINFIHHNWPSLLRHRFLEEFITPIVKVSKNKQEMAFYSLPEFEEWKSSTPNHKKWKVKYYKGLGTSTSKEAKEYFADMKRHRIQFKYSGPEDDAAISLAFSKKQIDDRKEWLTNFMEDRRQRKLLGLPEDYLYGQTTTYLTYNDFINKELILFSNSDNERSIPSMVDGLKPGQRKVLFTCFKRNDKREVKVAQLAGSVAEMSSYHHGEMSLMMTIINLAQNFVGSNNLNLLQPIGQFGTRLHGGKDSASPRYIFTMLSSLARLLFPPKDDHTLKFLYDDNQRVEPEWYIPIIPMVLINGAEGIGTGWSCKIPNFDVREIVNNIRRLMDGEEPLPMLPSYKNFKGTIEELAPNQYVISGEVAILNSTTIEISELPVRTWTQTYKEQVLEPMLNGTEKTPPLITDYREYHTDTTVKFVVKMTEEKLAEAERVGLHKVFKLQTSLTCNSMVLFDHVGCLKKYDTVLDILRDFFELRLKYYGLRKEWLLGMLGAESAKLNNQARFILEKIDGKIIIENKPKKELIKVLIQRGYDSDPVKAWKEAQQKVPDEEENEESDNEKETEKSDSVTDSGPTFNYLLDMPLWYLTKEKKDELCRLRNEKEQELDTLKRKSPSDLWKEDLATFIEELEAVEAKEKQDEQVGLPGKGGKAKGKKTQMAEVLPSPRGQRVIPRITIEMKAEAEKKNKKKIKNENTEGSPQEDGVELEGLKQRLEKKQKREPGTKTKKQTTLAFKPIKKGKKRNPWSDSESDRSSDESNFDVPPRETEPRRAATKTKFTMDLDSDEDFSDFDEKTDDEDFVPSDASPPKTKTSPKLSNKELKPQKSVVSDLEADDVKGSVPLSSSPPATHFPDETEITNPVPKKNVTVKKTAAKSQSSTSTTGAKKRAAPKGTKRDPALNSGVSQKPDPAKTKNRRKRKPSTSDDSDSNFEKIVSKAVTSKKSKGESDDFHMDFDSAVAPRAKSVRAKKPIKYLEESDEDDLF
Protocol: Biotin-conjugated antibody was added to each well followed by incubation at 37 °C for 1 h, then the plates were aspirated. Avidin conjugated Horseradish Peroxidase (HRP avidin) solution was added to each well, incubated again at 37 °C for 1 h. TMB substrate was added to the wells and the plate was incubated at 37 °C for 30 min at dark place. The absorbance was read using spectrophotometer at a wavelength of 450 nm.

caspase-7 = assay: Caspase-7 ELISA in MCF-7 cells; type: cell-based, human; conditions: for Caspase 7 FLD: MCF-7, at IC50, fold of control; for Caspase 7 Conc.(ng/ml): MCF-7, at IC50, control 0.45 ± 0.03
Protocol: as §3

topoisomerase II = target: T2, topoisomerase II (Homo sapiens, UniProt P11388); assay: DNA topo II inhibition assay (kDNA, agarose gel); type: biochemical; conditions: 10 µM, with topo II
T2 construct: purchased Topogen, USA
T2 sequence (P11388 whole entry): as above
Protocol: Using the procedure outlined in topoisomerase II Drug Screening Kit (Topogen, USA), the effect of 6a, 6c and 6i on topoisomerase II inhibition and the effectiveness of catenated/decatenated kDNA formation were examined. The reaction mixture includes 10 mM MgCl2, 50 mM Tris-HCl, 0.5 mM dithiothreitol, […]/ml bovine serum albumin, 200–300 ng of kDNA and topoisomerase II. […] After the reaction samples were incubated for 30 min at 37 °C, the reaction was stopped by adding […] of a stop buffer containing 10% (w/v) SDS and […] of 0.5 mg/ml proteinase followed by incubating the mixture for 10 min at 37 °C. The reaction mixture was separated by 1% agarose gel and examined after being stained with ethidium bromide.

EGFR = target: T3, EGFR (Homo sapiens, UniProt P00533); assay: EGFR kinase assay kit; type: biochemical; conditions: mean ± SE; read-out: EGFR inhibitory activity IC50
T3 construct: purchased BPS Bioscience, San Diego, CA, USA
T3 sequence (P00533 25-1210): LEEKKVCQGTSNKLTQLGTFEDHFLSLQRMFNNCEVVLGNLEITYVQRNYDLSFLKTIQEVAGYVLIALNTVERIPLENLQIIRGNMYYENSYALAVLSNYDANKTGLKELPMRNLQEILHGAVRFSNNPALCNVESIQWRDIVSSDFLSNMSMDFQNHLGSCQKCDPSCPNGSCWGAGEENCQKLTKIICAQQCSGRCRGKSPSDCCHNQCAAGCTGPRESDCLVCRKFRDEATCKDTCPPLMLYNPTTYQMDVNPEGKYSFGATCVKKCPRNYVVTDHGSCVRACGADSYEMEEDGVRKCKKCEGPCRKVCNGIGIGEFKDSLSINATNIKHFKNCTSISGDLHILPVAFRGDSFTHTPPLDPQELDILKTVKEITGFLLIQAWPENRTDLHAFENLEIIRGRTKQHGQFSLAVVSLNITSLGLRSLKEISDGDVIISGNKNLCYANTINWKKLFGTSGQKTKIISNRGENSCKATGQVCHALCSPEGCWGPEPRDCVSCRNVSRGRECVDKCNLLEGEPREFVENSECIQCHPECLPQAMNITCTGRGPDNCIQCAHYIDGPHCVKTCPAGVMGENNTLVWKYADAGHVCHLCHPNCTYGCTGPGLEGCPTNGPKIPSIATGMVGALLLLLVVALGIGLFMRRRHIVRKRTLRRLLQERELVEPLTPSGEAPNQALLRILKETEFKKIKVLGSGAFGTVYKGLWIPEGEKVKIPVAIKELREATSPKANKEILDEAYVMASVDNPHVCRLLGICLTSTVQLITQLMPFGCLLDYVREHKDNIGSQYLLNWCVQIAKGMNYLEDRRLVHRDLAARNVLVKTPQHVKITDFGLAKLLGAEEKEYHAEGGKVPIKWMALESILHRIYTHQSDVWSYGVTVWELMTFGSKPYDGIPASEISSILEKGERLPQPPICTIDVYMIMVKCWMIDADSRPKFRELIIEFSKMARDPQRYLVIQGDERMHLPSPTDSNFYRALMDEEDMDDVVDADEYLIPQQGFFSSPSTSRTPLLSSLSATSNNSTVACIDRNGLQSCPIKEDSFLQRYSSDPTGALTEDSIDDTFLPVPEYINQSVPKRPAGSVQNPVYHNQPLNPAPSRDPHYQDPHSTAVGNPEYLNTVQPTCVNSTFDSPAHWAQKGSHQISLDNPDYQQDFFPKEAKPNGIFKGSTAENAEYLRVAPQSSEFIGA
Protocol: The kinase activity of EGFR was assessed for 6a, 6c and 6i hybrids using EGFR kinase assay kit (BPS Bioscience, San Diego, CA, USA) based on the manufacturer’s instructions. Three independent experiments were performed for each compound and Mean ± SE were calculated.

[1] = MTT, 24 h, mean ± SE of three experiments, read-out: IC50 (µM) ± S.E. MCF-7
[2] = MCF-7, concentration used for treatment, read-out: IC50 (Table 2)
[3] = MCF-7, concentration used for treatment, read-out: IC50 (Table 3)

IC50 (MCF-7; [1]): 5.14 ± 0.32 µM | IC50 (A549): 5.72 ± 0.37 µM | IC50 (HCT-116): 9.81 ± 0.65 µM
SMILES: N#Cc1c(-c2ccc(Cl)cc2)nc2sc3c(n2c1=O)C(=O)c1ccccc1C3=O [Compound 6e, 2–(4-Chlorophenyl)-4,6,11-trioxo-6,11-dihydro-4H-naphtho[’',’':4,5]thiazolo-[3,2-a]pyrimidine-3-carbonitrile]

IC50 (MCF-7; [1]): 13.8 ± 1.12 µM | IC50 (A549): 42.2 ± 2.19 µM | IC50 (HCT-116): 9 ± 0.66 µM
SMILES: N#Cc1c(-c2ccccc2)nc2sc3c(n2c1=O)C(=O)c1ccccc1C3=O [Compound 6g, 4,6,11-Trioxo-2-phenyl-6,11-dihydro-4H-naphtho[’',’':4,5]thiazolo[3,2-a]-pyrimidine-3-carbonitrile]

IC50 (MCF-7; [1]): 7.26 ± 0.2 µM | IC50 (A549): 5.19 ± 0.36 µM | IC50 (HCT-116): 8.64 ± 0.18 µM
SMILES: C#Cc1cccc(Nc2ncnc3cc(OCCOC)c(OCCOC)cc23)c1 [Erlotinib, erlotinib, reference compound]

SMILES: COc1cccc2c1C(=O)c1c(O)c3c(c(O)c1C2=O)C[C@@](O)(C(=O)CO)C[C@@H]3O[C@H]1C[C@H](N)[C@H](O)[C@H](C)O1 [Dox, Doxorubicin, reference compound]
Caspase 9 FLD (caspase-9): 6.53 fold | Caspase 9 Conc.(pg/ml) (caspase-9): 29.48 ± 0.25 pg/mL | Bcl-2 Conc.(ng/ml) (Bcl-2): 1.66 ± 0.03 ng/mL | Bcl-2 FLD (Bcl-2): 0.25 fold | IC50 (MCF-7; [2]): 5.62 µM | IC50 (MCF-7; [3]): 5.62 µM | IC50 (MCF-7; [1]): 5.62 ± 0.31 µM | IC50 (A549): 4.95 ± 0.29 µM | IC50 (HCT-116): 6.78 ± 0.44 µM | Bax Conc.(pg/ml) (Bax): 511.2 ± 6.5 pg/mL | Bax FLD (Bax): 6.14 fold | p53 FLD (p53): 4 fold | p53 Conc.(pg/ml) (p53): 1051 ± 22.6 pg/mL | % inhibition of topoisomerase IIα activity (topoisomerase IIα): 65.92% | concentration of topoisomerase IIα (topoisomerase IIα; compounds at their IC50, control 3.663 ± 0.09 ng/ml): 1.248 ± 0.09 ng/mL | Caspase 7 FLD (caspase-7): 23.2 fold | Caspase 7 Conc.(ng/ml) (caspase-7): 10.44 ± 0.92 ng/mL

SMILES: N#Cc1c(-c2ccc(F)cc2)nc2sc3c(n2c1=O)C(=O)c1ccccc1C3=O [Compound 6b, 2–(4-Fluorophenyl)-4,6,11-trioxo-6,11-dihydro-4H-naphtho[’',’':4,5]thiazolo-[3,2-a]pyrimidine-3-carbonitrile]
IC50 (MCF-7; [1]): 4.78 ± 0.36 µM | fold the activity of erlotinib (MCF-7): 1.52 fold | fold the activity of erlotinib (A549): 1.23 fold | IC50 (A549): 4.2 ± 0.41 µM | IC50 (HCT-116): 11.5 ± 0.12 µM

IC50 (MCF-7; [1]): 29.1 ± 1.56 µM | IC50 (A549): 38.3 ± 3.21 µM | IC50 (HCT-116): 26.8 ± 1.78 µM
SMILES: COc1cc(-c2nc3sc4c(n3c(=O)c2C#N)C(=O)c2ccccc2C4=O)cc(OC)c1OC [Compound 6f, 4,6,11-Trioxo-2–(3,4,5-trimethoxyphenyl)-6,11-dihydro-4H-naphtho[’',’':4,5]-thiazolo[3,2-a]pyrimidine-3-carbonitrile]

SMILES: N#Cc1c(-c2ccc(Br)cc2)nc2sc3c(n2c1=O)C(=O)c1ccccc1C3=O [Compound 6d, 2–(4-Bromophenyl)-4,6,11-trioxo-6,11-dihydro-4H-naphtho[’',’':4,5]thiazolo-[3,2-a]pyrimidine-3-carbonitrile]
IC50 (MCF-7; [1]): 5.66 ± 0.29 µM | fold the activity of erlotinib (MCF-7): 1.28 fold | fold the activity of erlotinib (A549): 1.60 fold | IC50 (A549): 3.25 ± 0.31 µM | IC50 (HCT-116): 11.77 ± 0.11 µM

IC50 (EGFR): 0.0447 ± 0.00082 µM | IC50 (MCF-7; [2]): 4.42 µM | IC50 (MCF-7; [3]): 4.42 µM | IC50 (MCF-7; [1]): 4.42 ± 0.35 µM | IC50 (A549): 3.65 ± 0.25 µM | IC50 (HCT-116): 3.66 ± 0.39 µM | % inhibition of topoisomerase IIα activity (topoisomerase IIα): 11.30%
SMILES: COc1ccc(-c2nc3sc4c(n3c(=O)c2C#N)C(=O)c2ccccc2C4=O)cc1OC [Compound 6c, 2–(3,4-Dimethoxyphenyl)-4,6,11-trioxo-6,11-dihydro-4H-naphtho[’',’':4,5]-thiazolo[3,2-a]pyrimidine-3-carbonitrile]
Caspase 9 FLD (caspase-9): 3.03 fold | Caspase 9 Conc.(pg/ml) (caspase-9): 13.68 ± 0.42 pg/mL | linear DNA formation from catenated kDNA (topoisomerase II): the production of linear DNA was not noticed | Bcl-2 Conc.(ng/ml) (Bcl-2): 2.17 ± 0.36 ng/mL | Bcl-2 FLD (Bcl-2): 0.33 fold | Bax Conc.(pg/ml) (Bax): 372.7 ± 9.4 pg/mL | Bax FLD (Bax): 4.48 fold | p53 FLD (p53): 2.6 fold | p53 Conc.(pg/ml) (p53): 678 ± 42.3 pg/mL | Caspase 7 FLD (caspase-7): 4.20 fold | Caspase 7 Conc.(ng/ml) (caspase-7): 1.89 ± 0.02 ng/mL

IC50 (MCF-7; [1]): 37.9 ± 2.25 µM | IC50 (A549): 21.2 ± 1.23 µM | IC50 (HCT-116): 56.2 ± 4.11 µM
SMILES: CN(C)c1ccc(-c2nc3sc4c(n3c(=O)c2C#N)C(=O)c2ccccc2C4=O)cc1 [Compound 6h, 2–(4-(Dimethylamino)phenyl)-4,6,11-trioxo-6,11-dihydro-4H-naphtho-[’',’':4,5]thiazolo[3,2-a]pyrimidine-3-carbonitrile]

— article PMC10177692, “Novel topoisomerase II/EGFR dual inhibitors: design, synthesis and docking studies of naphtho[2′,3′:4,5]thiazolo[3,2-a]pyrimidine hybrids as potential anticancer agents with apoptosis inducing activity” (Journal of Enzyme Inhibition and Medicinal Chemistry, 2023)
